Laboratory results from patent US10421755B2, “Salts of aza-bicyclic di-aryl ethers and methods to make them or their precursors” (Novartis AG, priority 2011, dated 2019).

How the values were obtained:
human α7-nAChR = biological target: T1, human α7-nAChR (Homo sapiens, UniProt P36544); assay: functional assay (FLIPR, Fluo-4 calcium) using GH3 cells that recombinantly expressed human α7-nAChR; format: cell-based
T1 construct: expressed in transfected cells; host or cells: GH3 cells (rat pituitary line)
T1 sequence (P36544 23-502): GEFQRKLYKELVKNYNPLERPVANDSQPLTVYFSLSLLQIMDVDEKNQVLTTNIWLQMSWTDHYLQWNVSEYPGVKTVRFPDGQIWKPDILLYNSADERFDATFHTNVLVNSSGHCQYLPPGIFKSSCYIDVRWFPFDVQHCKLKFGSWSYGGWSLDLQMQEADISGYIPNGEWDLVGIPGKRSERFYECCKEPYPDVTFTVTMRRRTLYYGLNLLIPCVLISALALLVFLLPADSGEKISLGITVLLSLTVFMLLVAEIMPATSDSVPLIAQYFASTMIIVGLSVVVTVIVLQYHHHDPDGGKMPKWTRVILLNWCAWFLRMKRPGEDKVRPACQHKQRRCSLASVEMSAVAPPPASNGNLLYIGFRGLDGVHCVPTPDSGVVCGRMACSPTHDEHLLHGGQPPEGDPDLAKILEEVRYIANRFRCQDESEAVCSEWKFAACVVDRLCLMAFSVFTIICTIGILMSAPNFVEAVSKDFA
Description: Assay: To assess α7-nAChR activity, a functional assay was employed using GH3 cells that recombinantly expressed human α7-nAChR. 40000 cells per well were seeded 48 h prior to the experiment on black 96-well plates (Costar) and incubated at 37° C. in a humidified atmosphere (5% CO2/95% air). On the day of the experiment, medium was removed by flicking the plates and replaced with 0.1 ml growth medium containing 0.002 mM Fluo-4, (Molecular Probes) in the presence of 2.5 mM probenecid (Sigma). The cells were incubated at 37° C. in a humidified atmosphere (5% CO2/95% air) for 1 h. Plates were flicked to remove excess of Fluo-4, washed twice with Hepes-buffered salt solution (HBSS, in mM: NaCl 130, KCl 5.4, CaCl2 2, MgSO4 0.8, NaH2PO4 0.9, glucose 25, Hepes 20, pH 7.4; HBS) and refilled with 0.1 ml of HBS containing antagonist when appropriate. The incubation in the presence of the antagonist lasted 3-5 minutes. Plates were placed in the cell plate stage of a FLIPR device (fluorimetric imaging plate reader, Molecular Devices, Sunnyvale, Calif., USA). After recording of the baseline (laser: excitation 488 nm at 1 W, CCD camera opening of 0.4 seconds) the agonists (0.05 ml) were added to the cell plate using the FLIPR 96-tip pipettor while simultaneously recording the fluorescence. […]

[1] = biological target: T2, human neuronal nAChR α4β2 (Homo sapiens, UniProt P17787+P43681); assay: similar functional assay using a human epithelial cell line stably expressing the human α4β2 subtype; format: cell-based
T2 construct: expressed in transfected cells
T2 sequence (P43681 29-627 limits assumed): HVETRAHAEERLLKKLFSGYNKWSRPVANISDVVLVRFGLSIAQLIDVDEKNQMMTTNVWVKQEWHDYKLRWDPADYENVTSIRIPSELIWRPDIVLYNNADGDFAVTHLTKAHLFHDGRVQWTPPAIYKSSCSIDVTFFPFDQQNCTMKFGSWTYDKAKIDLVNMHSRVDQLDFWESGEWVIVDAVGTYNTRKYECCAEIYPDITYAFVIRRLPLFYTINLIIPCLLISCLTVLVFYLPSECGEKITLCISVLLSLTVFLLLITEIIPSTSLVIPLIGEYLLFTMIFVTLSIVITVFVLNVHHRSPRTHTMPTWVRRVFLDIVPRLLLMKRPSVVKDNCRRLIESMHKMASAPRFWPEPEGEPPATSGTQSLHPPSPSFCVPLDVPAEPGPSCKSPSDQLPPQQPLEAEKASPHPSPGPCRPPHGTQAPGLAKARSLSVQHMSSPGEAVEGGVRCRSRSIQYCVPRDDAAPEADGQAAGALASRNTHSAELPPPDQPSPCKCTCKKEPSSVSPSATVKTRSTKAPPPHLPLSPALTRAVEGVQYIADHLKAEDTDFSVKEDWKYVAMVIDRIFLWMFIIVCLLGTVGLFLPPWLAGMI
T2 sequence (P17787 26-502): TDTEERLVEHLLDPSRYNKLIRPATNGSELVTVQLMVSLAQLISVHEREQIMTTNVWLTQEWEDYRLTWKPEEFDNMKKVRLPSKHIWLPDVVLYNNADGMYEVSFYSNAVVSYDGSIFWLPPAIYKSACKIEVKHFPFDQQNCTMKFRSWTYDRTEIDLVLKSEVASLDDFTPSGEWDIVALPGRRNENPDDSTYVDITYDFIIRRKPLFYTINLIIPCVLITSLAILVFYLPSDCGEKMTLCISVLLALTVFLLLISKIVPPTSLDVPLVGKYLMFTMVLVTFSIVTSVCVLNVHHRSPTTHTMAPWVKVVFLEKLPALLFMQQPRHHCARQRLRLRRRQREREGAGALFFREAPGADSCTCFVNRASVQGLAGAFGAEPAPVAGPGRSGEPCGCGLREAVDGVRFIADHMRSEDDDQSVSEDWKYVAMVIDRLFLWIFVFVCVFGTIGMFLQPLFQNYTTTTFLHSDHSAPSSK
Description: To assess the activity of the compound of the invention on the human neuronal nAChR α4β2, a similar functional assay is carried out using a human epithelial cell line stably expressing the human α4β2 subtype (Michelmore et al., Naunyn-Schmiedeberg's Arch. Pharmacol. (2002) 366, 235).

[2] = Oral bioavailability and brain penetration in mice; format: in vivo
Description: Assay: Compounds were orally (30 μmol/kg) administered. Male mice (30-35 g, OF1/ICstrain) were sacrificed at indicated time points after oral administration. Trunk-blood was collected in EDTA-containing tubes and the brain was removed and immediately frozen on dry ice. To 100 μl plasma 10 μl internal standard (1.0 μmol of a compound with solubility and ionization properties similar to test compounds) was added and extracted three times with 500 μl dichloromethane. The combined extracts were then dried under a stream of nitrogen and re-dissolved in 100 μl acetonitrile/water (70% acetonitrile). Brains were weighed and homogenized in water (1:5 w/v). Two 100 μl aliquots of each homogenate+10 μl of internal standard (same standard as used for the plasma samples) were extracted three times with 500 μl dichloromethane and further processed as the plasma samples. Samples were separated on Beckmann high-performance liquid chromatography equipment system with an autosampler (Gilson 233XL). A 10 min linear gradient (10-70%) of acetonitrile containing 0.5% (v/v) formic acid was used to elute the compounds from Nucleosil CC-125/2 C18 reversed phase (Machery&Nagel) column.
The limit of detection (LOD), defined as the lowest concentration of the extracted standard sample with a signal to noise ratio of ˜3.

[3] = Pharmacokinetics in rats after oral administration; format: in vivo, Wistar rats; settings: male, Wistar, rat, in vivo, po, 10 mg/kg; for Tmax: Tmax (h)
Description: If a salt forming agent is used (e.g. fumarate), a corresponding higher amount of the salt will be used to achieve the intended dosing.
Both compounds were dissolved in Klucel™ (0.5% in water) and were orally administered by gavage (5 ml/kg) to conscious rats (n=8, cross-over design).
K3-EDTA blood (˜0.2 ml) was collected by puncture of a sublingual vein under light isoflurane anesthesia at the following time points: 0.25, 0.5, 1, 2, 3, 4, 6, 8, 24 h post dose. Immediately after sampling, blood samples were put on ice and were processed to plasma by centrifugation at 4° C. within 15 min after sampling (1000 g, 10 min, 4° C.) to obtain ˜100 μl plasma/sample. All plasma samples were stored at −80° C. until analysis. Since the PK study was performed in a cross-over design, a recovery period of approximately 2 weeks took place before the next treatment/blood sampling was performed.
The determination of compounds in plasma was done by LC-MS/MS using electrospray ionization.

[4] = Hygroscopicity (moisture gain at relative humidity); format: physicochemical; set-up: Hygroscopy @ 85% RH: unit not given here
[5] = Decomposition temperature; format: physicochemical; set-up: unit not given here; settings: comparison table, Example 7
[6] = Known multiple solid forms; format: physicochemical; settings: comparison table, Example 7

For `Cc1ccc(-c2ccc(O[C@H]3CN4CCC3CC4)cn2)cc1` [Compound A, (R)-3-(6-(4-methylphenyl)-pyridin-3-yloxy)-1-aza-bicyclo[2.2.2]octane], the “α7-nAChR activity Efficacy compared to epibatidine (100%)” value (human α7-nAChR; Emax relative to epibatidine response) was 75%, the EC50 (human α7-nAChR; GH3 cells, human α7-nAChR, read-out: α7-nAChR activity Potency EC50) was 35 nM and the EC50 [1] was > 100 µM. For the same molecule, the IC50 [1] was 5.6 µM, the “Brain (pmoles/g ± SD)” value ([2]; 30 μmol/kg p.o., 0.25 hour) was 4631 ± 1717 pmol/g and the “Brain (pmoles/g ± SD)” value ([2]; 30 μmol/kg p.o., 0.5 hour) was 11430 ± 3441 pmol/g. The “Brain (pmoles/g ± SD)” value ([2]; 30 μmol/kg p.o., 1 hour) was 14948 ± 4716 pmol/g, the “Brain (pmoles/g ± SD)” value ([2]; 30 μmol/kg p.o., 4 hour) was 1272 ± 715 pmol/g and the “Brain (pmoles/g ± SD)” value ([2]; 30 μmol/kg p.o., 8 hour) was 58 ± 27 pmol/g. For the same molecule, the “time for which brain concentration is beyond (or at least equal) to the EC50 at the α7-nAChR” value ([2]; acute oral dose of 30 μmol/kg) was “at least 4 hours”, the concentration at 0.25 h ([2]; male, OF1/IC, mouse, plasma, po, 30 μmol/kg p.o., 0.25 hour, read-out: Plasma (pmoles/ml ± SD)) was 573 ± 234 pmol/mL and the concentration at 0.5 h ([2]; male, OF1/IC, mouse, plasma, po, 30 μmol/kg p.o., 0.5 hour, read-out: Plasma (pmoles/ml ± SD)) was 559 ± 143 pmol/mL. It also gave a concentration at 1 h ([2]; male, OF1/IC, mouse, plasma, po, 30 μmol/kg p.o., 1 hour, read-out: Plasma (pmoles/ml ± SD)) of 322 ± 135 pmol/mL, a concentration at 4 h ([2]; male, OF1/IC, mouse, plasma, po, 30 μmol/kg p.o., 4 hour, read-out: Plasma (pmoles/ml ± SD)) of 20 ± 16 pmol/mL and a concentration at 8 h ([2]; male, OF1/IC, mouse, plasma, po, 30 μmol/kg p.o., 8 hour, read-out: Plasma (pmoles/ml ± SD)) of 3.4 ± 0.8 pmol/mL. For the same molecule, the “Cmax/Dose (ng/mL)/(mg/kg), Mean All” value [3] was 11.3 (ng/mL)/(mg/kg), the AUC(0-t) ([3]; AUClast (h · ng/mL), Mean All) was 200 ± 62 ng·h/mL and the Cmax ([3]; Cmax (ng/mL), Mean All) was 112 ± 40 ng/mL. The Tmax [3] was 15 min, the Tmax ([3]; all rats) was 15 to 30 min and the half-life ([3]; T½ (h), Mean All) was 310 min. The “hygroscopicity (in words)” value [4] was “hygroscopic”, the moisture gain ([4]; at 93% relative humidity (RH)) was 2% and the “Hygroscopy @ 85% RH” value ([4]; comparison table, Example 7) was ~2. The Decomposition temperature [5] was 224 and the “Known Multiple forms” value [6] was “Yes”.
